Measured values: patent US20080275105A1, “Selective Muscle Relaxant and Pharmaceutical Compositions” (UNIVERSIDADE FEDERAL DO RIO DE JANEIROUFRJ, priority 2004, published 2008)
“And” between values parts separate entries of the source, which are not always exact repeats. Identical values can stand only once. “Also recorded” adds a separate entry of the source.

Assays:
rat papillary muscle = test: Isometric tension (electrically stimulated twitches) in papillary muscle; assay type: cell-based; settings: for maximum alterations to the papillary muscle twitches: 10 to 100 μM, not significant; for amplitude of the papillary muscle twitches: 100 μM, 1 Hz stimulation
Procedure: (§1) Once the experiments have been carried out, the findings were subject to statistical analyses being expressed in average ±SEM as a percentage of the control value, and graphs were drawn up using the Sigma Plot 5.0 program to represent the data obtained. For the statistical analysis of the effects on the different muscle tissues, the difference was assessed among the concentrations of the same derivative, using the “t” Student test. In order to ascertain the difference among the derivatives, the one-way ANOVA test was used. The differences were considered as significant for p<0.05. The Cl50 was expressed as an average ±SEM of the values obtained for each experiment through non-linear regression based on the y=yo+ae^−bx equation.
(§2) After anesthesia with ethyl ether, male Wistar rats weighing between 240-280 grams were sacrificed through cervical dislocation. The heart was removed rapidly and the papillary muscle and the ventricular bundles were dissected in Tyrode's solution, whose composition is given in Table 2 below, at room temperature. The muscles were placed in vertical chambers with a capacity of 10 mL and fixed at their extremities: the lower portion to a hook located in the stimulation electrode fixation rod and the upper portion connected to a power transducer (Grass FT03) for recording the muscle twitches.
(§3) The muscles were stimulated electrically with supra-maximum voltage (50-60 V) through a stimulator (Grass S88) at a frequency of 1.0 Hz. The signals captured by the transducer were amplified (Cyberamp 380, Axon Instruments) and the isometric tension was digitized (Digidata 1322A, Axon Instruments) and stored on a computer. The screening and analysis of the experiment was handled through the Axoscope 8.0 program (Axon Instruments) (Sudo & cols., 2001). The chamber solution was bubbled continuously with a carbogenic mixture (95% O2/5% CO2) and kept at a temperature of 37° C.
(§4) After the stabilization of the muscle twitches (approximately 30 min) the records were carried out in the absence (control) and presence of rising concentrations (10 to 100 μM) of the different L294 analogs, diluted in DMSO. The records were carried out in pairs (two papillary and two ventricle) thus allowing the control experiments to be carried out in one of the pairs, meaning with rising quantities of DMSO equivalent to those used to dilute the substances. The reversibility of the effect of the substances was investigated at the end of each experiment, noting the recovery of the muscle twitches after bathing the preparation with Tyrode's solution.

[1] = system: left ventricle bundles of a rat heart; test: Isometric tension in ventricular bundles; assay type: cell-based; settings: for muscular response in ventricular bundles: concentration not given, alterations not greater than 10%
Procedure: as §1, §2, §3, §4

[2] = system: rat aorta rings with the vascular endothelium preserved; test: Phenylephrine-induced contracture in aorta rings with preserved endothelium; assay type: cell-based; settings: phenylephrine 10 μM; for IC50: Rattus norvegicus, with endothelium, six experiments, read-out: CI50 (μM) Average ± SEM
Procedure: as §1
(§5) Male Wistar rats weighing between 240-280 grams were sacrificed through dislocation of the cervical column under anesthesia using ethyl ether. The aorta artery was removed and transferred to a Petri dish containing modified Tyrode's solution whose composition is described in Table 3 below, where the vessel was cleaned and the connective tissue was removed. According to the scheduled Experiment Protocol, the vascular endothelium was removed mechanically with the assistance of a polyethylene rod. The artery was divided into rings with a width of 2-3 mm. Two hooks were placed in the wall of the vessel in order to record the tension generated by the muscle in a transversal direction. To do so, one of the hooks was tied to a fixed point in the chamber and the other to a power transducer (FT 03) for recording the isometric tension. The tension generated by the muscle was transformed into a digitized electric signal (Digidata 1322A) and stored in a computer for subsequent analysis using the Axoscope 8.0 program (Axon Instruments, Inc). The chamber was filled with Krebs solution, oxygenated and kept at a temperature of 37° C.
(§6) After stabilizing the preparation, approximately 120 minutes, the Experiment Protocol began. Initially, in order to identify the presence or absence of the vascular endothelium, the preparation was exposed to phenylephrine (10 μM) and when the contracture in response to this substance was stabilized, acetylcholine (10 μM) was added to the nutrient solution. Relaxation of over 80% in response to the acetylcholine indicated the full integrity of the endothelium and relaxation of less than 10% indicated the absence of endothelium. The tissues in which the relaxation intensity fell between >10% and <80% were discarded. In order to investigate the vasodilator effect of the different L294 analogs, they were added to the experiment chambers in rising concentration after the contracture stabilization of the vessel induced by phenylephrine. The tension registered after treatment with each of the L294 analog concentrations was normalized as a function of the amplitude of the contracture triggered by phenylephrine. For the purpose of comparing the potency of some of the L294 analogs, the Cl50 was determined for each experiment using the y=yo+ae^−bx equation and their mean was used for the statistical analysis.

[3] = system: aorta rings with no preserved endothelium; test: Phenylephrine-induced contracture in aorta rings without endothelium; assay type: cell-based, rat; settings: phenylephrine 10 μM; for IC50: Rattus norvegicus, without endothelium, six experiments, read-out: CI50 (MM) Average ± SEM; for vasodilatory / relaxing effect on phenylephrine contracture, without endothelium: result in words
Procedure: as §1, §5, §6
The importance of the presence of vascular endothelium in the vasodilatory action of the L294 analogs was assessed in experiments in which these cells were removed mechanically. […] When the findings of the experiments without the endothelium were analyzed as a whole, the absence of the L790 effect was confirmed. […] The maximum relaxation caused by the L787 and L789 analogs was less than 50% of the control, and the other analogs caused relaxation in the following decreasing order of efficacy: L785>L788>L786. Once again, attention is drawn to the marked efficiency of the L785 and L788 analogs.

[4] = system: extensor digitorium longus (EDL) muscle; test: Electrically induced twitch amplitude in fast-fiber skeletal muscle (EDL); assay type: cell-based, mice; settings: for EDL twitch amplitude 30 min-Washing (% of the control): 30 min after washing
Procedure: (§7) Male mice weighing 22-28 g were sacrificed through cervical dislocation and the extensor digitorium longus (EDL) and soleus (SOL) muscles were dissected in a Ringer-Krebs solution, whose composition is given in Table 9, at room temperature. The muscles were placed in vertical chambers with a capacity of 10 ml, and were fixed by their ends to the stimulation electrode fixation rod and a power transducer (Grass FT03) for registering muscle twitches. The chamber solution was bubbled continuously with a carbogenic mixture (95% O2/5% CO2) and kept at a temperature of 37° C. The muscles were stimulated electrically through a stimulator (Grass S88) at a frequency of 0.2 Hz, at 37° C. After the stabilization of the muscle twitches (±30 minutes) a control record was taken in the absence of the drug, and subsequently rising concentrations (from 10 μM to 200 μM) of the L294 derivatives were added every ten minutes, diluted in DMSO. […] The signals recorded by the transducer were amplified (Cyberamp) and the isometric tension was digitized (Digidata 1322A) and stored on a computer. The screening and analysis of the experiment was handled through the use of the Axoscope 8.0 program. (Zapata-Sudo, 2003).
(§8) A measurement of the electrically-induced twitch amplitude was selected to assist the effects of the L294 analogs on the skeletal muscle inotropism. One muscle consisting of fast fibers (extensor digitorium longus-EDL) and the other of slow fibers (soleus-SOL) taken from mice were selected for this purpose. Differences in the timing of the twitches between the fast and slow muscles are shown at the faster recording speed. […] Washing the preparation with Krebs solution caused a partial reversion of the effects induced by the L786.

soleus (SOL) muscle = test: Electrically induced twitch amplitude in slow-fiber skeletal muscle (SOL); assay type: cell-based, mice; settings: for SOL twitch amplitude 30 min-Washing (% of the control): 30 min after washing
Procedure: as §7, §8

[5] = system: corpus cavernosa of a male guinea pig; test: Phenylephrine-induced contracture in corpus cavernosa; assay type: cell-based; settings: 200 μM; phenylephrine 30 μM
Procedure: It is noted that L788 concentration-dependent inhibition occurred for the contractile response of the corpus cavernosa.
This same Protocol Experiment was repeated for the other derivatives being tested and for the solvent separately (FIG. 11). It was noted that only L788 caused significant reaction, where the amplitude of the contracture at a concentration of 200 μM was 46.5±8.8% of the control. […] The effect of the solvent (DMSO) was tested at volumes corresponding to those used for the derivatives, and was unable to cause any significant alterations to the contractility of this tissue.

[6] = system: rat aorta rings with preserved endothelium; test: KCl-induced contracture in aorta rings with preserved endothelium; assay type: cell-based; settings: KCl 40 mM
Procedure: as §1, §5, §6
The effects of the L294 analogs were investigated in rat aorta rings with preserved endothelium whose contracture was induced by increasing the extra-cellular concentration of KCl to 40 mM. Of the seven L294 analogs, this test was carried out only with the L785, L786, L789 and L790, in this group of experiments.

[7] = system: rat aorta rings with no endothelium; test: KCl-induced contracture in aorta rings without endothelium; assay type: cell-based; settings: Rattus norvegicus; KCl 40 mM; without endothelium; six experiments; read-out: CI50 (μM) Average ± SEM
Procedure: as §1, §5
as §6, with “[…] […]” for “In order to investigate the vasodilator effect of the different L294 analogs, they were added to the experiment chambers in rising concentration after the contracture stabilization of the vessel induced by phenylephrine. The tension registered after treatment with each of the L294 analog concentrations was normalized as a function of the amplitude of the contracture triggered by phenylephrine.”

SMILES: Cc1ccc(/C=N/NC(=O)c2ccc3c(c2)OCO3)s1 [L787, 1,3-Benzodioxol-5-carboxylic acid, [1-(5-methyl-thiophene-2-yl)-meth-(E)-ylidene]-hydrazide]
- maximum alterations to the papillary muscle twitches (rat papillary muscle): 115.0±5.0 % of the control
- muscular response in ventricular bundles [1]: 105±6.9 % of the control
- IC50 [2]: 293 ± 76 µM
- maximum inhibition levels of phenylephrine contracture, with endothelium [2]: 37.1±7.0%
- IC50 [3]: 273 ± 22 µM
- EDL twitch amplitude 200 μM (% of the control) [4]: 37.8±3.5 % of the control
- EDL twitch amplitude 30 min-Washing (% of the control) [4]: 38.6 ± 2.5 % of the control
- SOL twitch amplitude 200 μM (% of the control) (soleus (SOL) muscle): 47.6±4.2 % of the control

SMILES: C=CCN(/N=C/c1cccs1)C(=O)c1ccc2c(c1)OCO2 [L788, 1,3-Benzodioxol-5-carboxylic acid, N′-[1-thiophene-2-yl-meth-(E)-ylidene]-N-allyl-hydrazide]
- amplitude of the papillary muscle twitches (rat papillary muscle): 81.2±2.6 % of the control
- muscle twitches / contractility in ventricular bundles ([1]; 100 μM): 74.9±5.1 % of the control
- IC50 [2]: 67.9 ± 6.5 µM
- amplitude of the phenylephrine contracture in rings with whole endothelium ([2]; maximum effect): 10.4±3.2 % of the control
- IC50 [3]: 65.7 ± 8 µM
- amplitude of the phenylephrine-induced contracture of the corpus cavernosa [5]: 46.5±8.8 % of the control
- EDL twitch amplitude 200 μM (% of the control) [4]: 47.6±5.4 % of the control
- EDL twitch amplitude 30 min-Washing (% of the control) [4]: 26.8 ± 2.3 % of the control
- SOL twitch amplitude 200 μM (% of the control) (soleus (SOL) muscle): 45.1±5.1 % of the control
- SOL twitch amplitude 30 min-Washing (% of the control) (soleus (SOL) muscle): 37.8 ± 4.7 % of the control

SMILES: O=C(N/N=C/c1ccc([N+](=O)[O-])s1)c1ccc2c(c1)OCO2 [L790, 1,3-Benzodioxol-5-carboxylic acid, [1-(5-nitro-thiophene-2-yl)-meth-(E)-ylidene]-hydrazide]
- maximum alterations to the papillary muscle twitches (rat papillary muscle): 87.8±5.6 % of the control
- muscular response in ventricular bundles [1]: 92.3±1.6 % of the control
- IC50 [2]: 216 ± 39.3 µM
- maximum inhibition levels of phenylephrine contracture, with endothelium [2]: 47.0±5.9%
- amplitude of the KCl contracture, with endothelium ([6]; 200 μM stated for L790): 74.9±8.8 % of the control
- CI50 (μM) Average ± SEM ([6]; with endothelium, six experiments): cannot be determined
- inhibition of the KCl contracture, with endothelium ([6]; up to 100 μM, result in words): insignificant
- vasodilatory / relaxing effect on phenylephrine contracture, without endothelium [3]: absence of the relaxing effect; also recorded: lacked vasodilatory action; also recorded: did not cause a significant relaxing effect
- IC50 [7]: 123 ± 17.3 µM
- EDL twitch amplitude 200 μM (% of the control) [4]: 52.2±3.4 % of the control and 52.2 ± 3.8 % of the control
- EDL twitch amplitude 30 min-Washing (% of the control) [4]: 49.2 ± 5.1 % of the control
- SOL twitch amplitude 200 μM (% of the control) (soleus (SOL) muscle): 71.3±5.2 % of the control
- SOL twitch amplitude 30 min-Washing (% of the control) (soleus (SOL) muscle): 70.8 ± 7.7 % of the control

SMILES: O=C(NNCc1cccs1)c1ccc2c(c1)OCO2 [L791, 1,3-Benzodioxol-5-carboxylic acid, N′-thiophene-2-ylmethyl-hydrazide]
- amplitude of the papillary muscle twitches (rat papillary muscle): did not significantly alter the contractile response
- maximum alterations to the papillary muscle twitches (rat papillary muscle): 92.4±2.5 % of the control
- muscular response in ventricular bundles [1]: 89.4±4.5 % of the control
- IC50 [2]: 173 ± 26.7 µM
- maximum inhibition levels of phenylephrine contracture, with endothelium [2]: 59.2±7.8%
- vasodilatory / relaxing effect on phenylephrine contracture, without endothelium [3]: did not result in any vasodilatory activity; also recorded: lacked vasodilatory action
- EDL twitch amplitude 200 μM (% of the control) [4]: 45.8±6.9 % of the control and 45.9 ± 6.9 % of the control
- SOL twitch amplitude 200 μM (% of the control) (soleus (SOL) muscle): 69.3±4.8 % of the control
- SOL twitch amplitude 30 min-Washing (% of the control) (soleus (SOL) muscle): 74.4 ± 13.8 % of the control
